Each structure is given as a SMILES string. Values after ≈ are worked out from the molar mass of the structure shown. Read-outs that look alike come from different tables or passages of the source. Residues, ends and D or L forms follow the SMILES beside them.

For assay [1], the system named is M. tuberculosis. As to conditions: Kinetic killing assay; ref [22]; cited from earlier work. The text has this:
Table 6 The general characteristics and the previously reported MIC of each antimicrobial peptide used in this study. | column: MIC (µg/mL)

Assay [2] relates to M. tuberculosis H37Rv. Set-up: method as in PMID 32750539, PMID 29900893. As to conditions: previous reports; ref [30],[31]; cited from earlier work.
Assay [3] deals with M. tuberculosis H37Rv. Nature of the assay: Checkerboard assay (REMA read-out). It is filed as cell-based, Mycobacterium tuberculosis. As to conditions: for MIC: Mycobacterium tuberculosis, H37RV, 168 h, checkerboard, agent alone; for MIC / MIC, Combined: REMA read-out, 7 days.
Assay [4] concerns M. tuberculosis. The following applies: cited from earlier work.
The subject of assay [5] is M. tuberculosis H37Rv. As to conditions: 3 h, 100 µg/mL.

As usually defined, the MIC is the lowest concentration found to suppress growth. As to `CC(C)C[C@H](NC(=O)[C@H](CC(C)C)NC(=O)[C@H](CCCCN)NC(=O)[C@H](CCCCN)NC(=O)[C@@H](NC(=O)[C@H](C)N)C(C)C)C(=O)N[C@@H](CCCNC(=N)N)C(=O)N[C@@H](Cc1c[nH]c2ccccc12)C(=O)N[C@@H](Cc1c[nH]c2ccccc12)C(=O)N[C@@H](CO)C(=O)N[C@@H](CCCNC(=N)N)C(=O)N[C@@H](Cc1c[nH]c2ccccc12)C(=O)N[C@@H](Cc1c[nH]c2ccccc12)C(=O)N[C@@H](CCCCN)C(=O)N[C@@H](CCCCN)C(=O)O` [AK 15-6] (H-AVKKLLRWWSRWWKK-OH; N-terminus and C-terminus assumed), the minimum inhibitory concentration (MIC) in the assay on M. tuberculosis [1] was 37.5 µg/mL (≈ 18.1 µM).
Turning to `NNC(=O)c1ccncc1` [INH, isoniazid], the MIC in the assay with M. tuberculosis H37Rv [2] is 0.03 to 0.12 µg/mL. For the same compound, the MIC in the assay with M. tuberculosis H37Rv [3] came to 0.025 µg/mL. In addition, in the assay with M. tuberculosis H37Rv [3] (combination INH + D-hLF 1-11), the FIC is given as 0.48 and the “MIC, Combined” value came to 0.012 µg/mL.
With `CC(C)C[C@H](NC(=O)[C@H](CCCNC(=N)N)NC(=O)CNC(=O)CNC(=O)[C@@H](N)CCCNC(=N)N)C(=O)N[C@H]1CSSC[C@@H](C(=O)N[C@H](C(=O)NCC(=O)N[C@@H](CCCNC(=N)N)C(N)=O)C(C)C)NC(=O)[C@H](C(C)C)NC(=O)[C@@H]2CSSC[C@H](NC(=O)[C@H](Cc3ccc(O)cc3)NC1=O)C(=O)N[C@@H](CCCNC(=N)N)C(=O)N[C@@H](CCCNC(=N)N)C(=O)N[C@@H](CCCNC(=N)N)C(=O)N[C@@H](Cc1ccccc1)C(=O)N2` [PG-1], the “percent of mycobacterial growth inhibition” value with M. tuberculosis [4] (128 µg/mL, ref [3] Fattorini and colleagues) is on record as 96.7%; in the assay with M. tuberculosis H37Rv [5], “approximately 94.22%”. In addition, in the assay on M. tuberculosis [4] (Plate count assay, ref [3]), the MIC is 128 µg/mL (≈ 59.4 µM).
For the compound `CO[C@H]1/C=C/O[C@@]2(C)Oc3c(C)c(O)c4c(O)c(c(/C=N/N5CCN(C)CC5)c(O)c4c3C2=O)NC(=O)/C(C)=C\C=C\[C@H](C)[C@H](O)[C@@H](C)[C@@H](O)[C@@H](C)[C@H](OC(C)=O)[C@@H]1C` [RF, rifampicin], the MIC in the assay on M. tuberculosis H37Rv [2] was 0.12 to 0.5 µg/mL; in the assay on M. tuberculosis H37Rv [3], 0.5 µg/mL. Also, in the assay on M. tuberculosis H37Rv [3] (combination RF + D-hLF 1-11), the “MIC, Combined” value is 0.031 25 µg/mL.

Values taken from paper PMC9774897 (Antibiotics, 2022).
